Like-named read-outs stand apart in the source and are kept apart here.
How the values were obtained:
[1] = system: A-427 lung carcinoma cells [heterozygous G12D]; assay: Cancer cell line proliferation (CellTiter-Glo), A-427; format: cell-based; conditions: A-427 cells, 72 hr treatment, read-out: A427 CTG (EC50)
Method in brief: (§1)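 Cells were seeded at 4,000/well and grown 72 hr at 37° C./5% CO2, then exposed for 72 hr to 3-fold serial compound dilutions prepared from 20 μM to 1.02 nM (0.5% DMSO final). Viability was read with CellTiter-Glo and EC50 values were calculated.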

[2] = system: AGS gastric carcinoma cells [heterozygous G12D]; assay: Cancer cell line proliferation (CellTiter-Glo), AGS; format: cell-based; conditions: 72 hr treatment, read-out: AGS CTG (EC50)
Method in brief: as §1

[3] = target: T1, KRAS(G12D)/SOS1 (Homo sapiens, UniProt P01116, G12D); assay: KRAS(G12D)/SOS1 homogeneous time-resolved fluorescence (HTRF) assay; format: binding; conditions: absence of GTP; 4° C., 3 hr
T1 construct: purchased Cisbio 63ADK000CB17PEH
Method in brief: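 HTRF kit assay of compound-blocked KRAS(G12D)–SOS1 interaction, run without GTP. Compounds were tested as 3-fold dilutions from 20 µM to 1.02 nM and incubated with the reaction components for 3 hr at 4 °C, sealed. IC50 was taken as the concentration giving 50% of maximal inhibition.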

[4] = system: ASPC1 pancreatic adenocarcinoma cells [homozygous G12D]; assay: Cancer cell line proliferation (CellTiter-Glo), ASPC1; format: cell-based; conditions: 72 hr treatment, read-out: ASPC-1 CTG (EC50)
Method: The following cancer cell lines were employed: AGS gastric carcinoma [heterozygous G12D](ATCC, CRL-1739); A-427 lung carcinoma [heterozygous G12D](ATCC, HTB-53); ASPC1 pancreatic adenocarcinoma [homozygous G12D](ATCC, CRL-1682) and SW1990 pancreatic adenocarcinoma [homozygous G12D](ATCC CRL-2172). Cell lines were cultured essentially according to ATCC recommendations.
AGS, A-427, ASPC1, SW1990, and GP2D cells were plated in 96-well tissue culture plates at 4,000 cells/well and incubated at 37° C./5% CO2 for 72 hr in 100 μl of media. 3-fold serial dilutions of each test compound were prepared ranging from 20 μM to 1.02 nM. Each cell line was then treated with test compounds at various concentrations with a final concentration of 0.5% DMSO/well, and then incubated at 37° C./5% CO2 for 72 hr. 100 µl of CellTiter-Glo® Reagent (Promega Corporation, Madison, WI) was added to each well and processed according manufacturer's protocol. Results were analyzed and EC50 values were calculated in GraphPad 7 software.

T1 sequence (P01116 1-188 isoform P01116-2 G12D): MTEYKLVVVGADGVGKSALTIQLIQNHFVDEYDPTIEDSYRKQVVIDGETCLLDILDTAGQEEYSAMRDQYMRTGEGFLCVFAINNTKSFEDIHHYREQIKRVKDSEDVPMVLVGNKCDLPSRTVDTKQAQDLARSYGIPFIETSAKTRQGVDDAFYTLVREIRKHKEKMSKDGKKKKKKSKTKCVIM

Structure (SMILES) | EC50 ([1]; Homo sapiens) [nM] | EC50 ([2]; Homo sapiens) [nM] | IC50 [3] [nM] | EC50 ([4]; Homo sapiens, ASPC1, 72 h) [nM] | EC50 [1] [nM] | EC50 [2] [nM] | EC50 [4] [nM]
CC(C)c1cc(-c2nnc(C(=O)NC(C)C(F)(F)F)n2-c2ccc(CN3CCC(CN4CCN(CC5(COc6nc(N7CC8CCC(C7)N8)c7cnc(-c8cccc9ccccc89)c(F)c7n6)CC5)CC4)CC3)cc2)c(O)cc1O (stereo not shown) [Compound 137] | 100 to 1000 | 100 to 1000 | 100 to 1000 | 100 to 1000 |  |  | 
C#Cc1cccc2cccc(-c3ncc4c(N5CC6CCC(C5)N6)nc(OCC5(CN6CCN(C(=O)C7CCN(Cc8ccc(-n9c(C(=O)NCC)nnc9-c9cc(C(C)C)c(O)cc9O)cc8)CC7)CC6)CC5)nc4c3F)c12 [Compound 19] | 100 to 1000 | < 100 | < 100 | 100 to 1000 |  |  | 
C#Cc1cccc2cccc(-c3ncc4c(N5CC6CCC(C5)N6)nc(OCC5(CN6CCN(Cc7ccc8c(c7)CN(C(=O)c7cc(C(C)C)c(O)cc7O)C8)CC6)CC5)nc4c3F)c12 [Compound 11] | 100 to 1000 | 100 to 1000 | < 100 | 100 to 1000 |  |  | 
CCNC(=O)c1nnc(-c2cc(C(C)C)c(O)cc2O)n1-c1ccc(CN2CCN(C[C@H]3CC[C@@H](COc4nc(N5CC6CCC(C5)N6)c5cnc(-c6cccc7ccccc67)c(F)c5n4)N3C)CC2)cc1 [Compound 66] | < 100 | < 100 | 100 to 1000 | 100 to 1000 |  |  | 
Cc1c(F)cccc1-c1ncc2c(N3CC4CCC(C3)N4)nc(OC[C@@H]3C[C@H](N4CCN(Cc5ccc6c(c5)CN(C(=O)c5cc(C(C)C)c(O)cc5O)C6)CC4)CN3C)nc2c1F [Compound 61] | 100 to 1000 | 100 to 1000 | > 1000 | 100 to 1000 |  |  | 
CC(C)c1cc(-c2nnc(O)n2-c2ccc(CN(C)[C@@H]3CN4CCC[C@]4(COc4nc(N5CC6CCC(C5)N6)c5cnc(-c6cc(O)cc7ccccc67)c(F)c5n4)C3)cc2)c(O)cc1O [Compound 42] | > 1000 | > 1000 | < 100 | > 1000 |  |  | 
CCNC(=O)c1nnc(-c2cc(C(C)C)c(O)cc2O)n1-c1ccc(CN2CCN([C@H]3C[C@@H](COc4nc(N5CC6CCC(C5)N6)c5cnc(-c6cccc(C)c6C)c(F)c5n4)N(C)C3)CC2)cc1 [Compound 53] | 100 to 1000 | < 100 | < 100 | 100 to 1000 |  |  | 
C#Cc1cccc2cccc(-c3ncc4c(N5CC6CCC(C5)N6)nc(OCC5(CN6CCN(C(=O)C7CCN(Cc8ccc(-n9c(O)nnc9-c9cc(C(C)C)c(O)cc9O)cc8)CC7)CC6)CC5)nc4c3F)c12 [Compound 18] | 100 to 1000 | 100 to 1000 | < 100 | > 1000 |  |  | 
C#Cc1cccc2cc(O)cc(-c3ncc4c(N5CC6CNC(C6)C5)nc(OCC5(CN6CCN(CC7CCN(Cc8ccc(-n9c(C(=O)NC(C)C(F)(F)F)nnc9-c9cc(C(C)C)c(O)cc9O)cc8)CC7)CC6)CC5)nc4c3F)c12 (stereo not shown) [Compound 134] | 100 to 1000 | 100 to 1000 | < 100 | 100 to 1000 |  |  | 
Cc1cccc2cccc(-c3ncc4c(N5CC6CCC(C5)N6)nc(OC[C@@H]5C[C@H](N6CCN(Cc7ccc(-n8c(O)nnc8-c8cc(C(C)C)c(O)cc8O)cc7)CC6)CN5C)nc4c3F)c12 [Compound 22] | 100 to 1000 | 100 to 1000 | 100 to 1000 | > 1000 |  |  | 
Cc1cccc2cccc(-c3ncc4c(N5CC6CCC(C5)N6)nc(OC[C@@H]5C[C@H](N6CCN(Cc7ccc8c(c7)CN(C(=O)c7cc(C(C)C)c(O)cc7O)C8)CC6)CN5C)nc4c3F)c12 [Compound 68] |  |  | > 1000 |  | 100 to 1000 | 100 to 1000 | > 1000
CC(C)c1cc(-c2nnc(O)n2-c2ccc(CN3CCN([C@H]4C[C@@H](COc5nc(N6CC7CCC(C6)N7)c6cnc(-c7cccc8ccccc78)c(F)c6n5)N(C)C4)CC3)cc2)c(O)cc1O [Compound 30] | 100 to 1000 | 100 to 1000 | > 1000 | > 1000 |  |  | 
C#Cc1cccc2cc(O)cc(-c3ncc4c(N5CC6CCC(C5)N6)nc(OCC5(CN6CCN(CC7CCN(c8ccc9c(c8)CN(C(=O)c8cc(C(C)C)c(O)cc8O)C9)CC7)CC6)CC5)nc4c3F)c12 [Compound 133] | 100 to 1000 | 100 to 1000 | < 100 | 100 to 1000 |  |  | 
Cc1cccc(-c2ncc3c(N4CC5CCC(C4)N5)nc(OC[C@@H]4C[C@H](N5CCN(Cc6ccc(-n7c(O)nnc7-c7cc(C(C)C)c(O)cc7O)cc6)CC5)CN4C)nc3c2F)c1C [Compound 52] | 100 to 1000 | 100 to 1000 | > 1000 | > 1000 |  |  | 
CCNC(=O)c1nnc(-c2cc(C(C)C)c(O)cc2O)n1-c1ccc(CN2CCN(C(=O)C3CCN([C@H]4C[C@@H](COc5nc(N6CC7CCC(C6)N7)c6cnc(-c7cccc8cccc(Cl)c78)c(F)c6n5)N(C)C4)CC3)CC2)cc1 [Compound 6] | 100 to 1000 | 100 to 1000 | 100 to 1000 | > 1000 |  |  | 
Cc1cccc2cccc(-c3ncc4c(N5CC6CCC(C5)N6)nc(OC[C@@H]5C[C@H](N6CCC(C(=O)N7CCN(Cc8ccc(-n9c(O)nnc9-c9cc(C(C)C)c(O)cc9O)cc8)CC7)CC6)CN5C)nc4c3F)c12 [Compound 23] | 100 to 1000 | 100 to 1000 | 100 to 1000 | > 1000 |  |  | 
C#Cc1cccc2cccc(-c3ncc4c(N5CC6CCC(C5)N6)nc(OCC5CC[C@H](CN6CCN(C(=O)C7CCN(Cc8ccc(-n9c(O)nnc9-c9cc(C(C)C)c(O)cc9O)cc8)CC7)CC6)N5C)nc4c3F)c12 (stereo partly shown) [Compound 27] | < 100 | < 100 | < 100 | 100 to 1000 |  |  | 
Cc1cccc2cccc(-c3ncc4c(N5CC6CCC(C5)N6)nc(OC[C@@H]5C[C@H](N6CCN(Cc7ccc8c(c7)CN(C(=O)c7cc(C(C)C)c(O)cc7O)C8)CC6)CN5C)nc4c3F)c12 [Compound 37] | 100 to 1000 | 100 to 1000 | < 100 |  |  |  | 100 to 1000
CCNC(=O)c1nnc(-c2cc(C(C)C)c(O)cc2O)n1-c1ccc(CN2CCN([C@H]3C[C@@H](COc4nc(N5CC6CCC(C5)N6)c5cnc(-c6cccc7ccccc67)c(F)c5n4)N(C)C3)CC2)cc1 [Compound 34] | 100 to 1000 | < 100 | > 1000 | 100 to 1000 |  |  | 
CCNC(=O)c1nnc(-c2cc(C(C)C)c(O)cc2O)n1-c1ccc(CN2CCN([C@H]3C[C@@H](COc4nc(N5CC6CCC(C5)N6)c5cnc(-c6cccc7cccc(C)c67)c(F)c5n4)N(C)C3)CC2)cc1 [Compound 29] | < 100 | < 100 | 100 to 1000 | 100 to 1000 |  |  | 
CC(C)c1cc(-c2nnc(O)n2-c2ccc(CN3CCC(C(=O)C4CCN([C@H]5C[C@@H](COc6nc(N7CC8CCC(C7)N8)c7cnc(-c8cc(O)cc9ccccc89)c(F)c7n6)N(C)C5)CC4)CC3)cc2)c(O)cc1O [Compound 32] | 100 to 1000 | 100 to 1000 | < 100 | > 1000 |  |  | 
C#Cc1cccc2cc(O)cc(-c3ncc4c(N5CC6CCC(C5)N6)nc(OCC5(CN6CCC(OC7CCN(C(=O)C8CCN(Cc9ccc%10c(c9)CN(C(=O)c9cc(C(C)C)c(O)cc9O)C%10)CC8)CC7)CC6)CC5)nc4c3F)c12 [Compound 141] | < 100 | < 100 | < 100 | 100 to 1000 |  |  | 
